Active and inactive are the calls of the source.
Key:
cells = format: functional, cell-based
[1] = molecular target: T1, Sentrin-specific protease 8 (Homo sapiens, UniProt Q96LD8); format: functional
T1 sequence (Q96LD8 whole entry): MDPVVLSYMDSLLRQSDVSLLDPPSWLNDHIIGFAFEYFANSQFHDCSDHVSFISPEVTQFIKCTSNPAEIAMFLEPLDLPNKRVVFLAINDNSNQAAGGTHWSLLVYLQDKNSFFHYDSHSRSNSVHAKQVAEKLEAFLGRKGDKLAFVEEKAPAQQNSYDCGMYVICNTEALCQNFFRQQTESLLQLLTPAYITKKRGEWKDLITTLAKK

HEK293 = test: Fluorescence-based counterscreen for potentiators or agonists of NPY-Y1: cell-based high-throughput dose response assay for inhibitors of cyclic nucleotide gated ion channel (CNGC) activity. In this assay, the parental HEK293 cell line transfected with a cyclic-nucleotide gated ion channel (CNGC)-based cAMP sensor is used to measure inhibition of isoproterenol-induced CNGC …; format: functional; settings: Homo sapiens
[2] = molecular target: T2, Neuropeptide Y receptor type 2 (Homo sapiens, UniProt P49146); test: Fluorescence-based counterscreen for agonists of NPY-Y1: cell-based high-throughput dose response assay for agonists of NPY-Y2.; format: functional
T2 sequence (P49146 whole entry): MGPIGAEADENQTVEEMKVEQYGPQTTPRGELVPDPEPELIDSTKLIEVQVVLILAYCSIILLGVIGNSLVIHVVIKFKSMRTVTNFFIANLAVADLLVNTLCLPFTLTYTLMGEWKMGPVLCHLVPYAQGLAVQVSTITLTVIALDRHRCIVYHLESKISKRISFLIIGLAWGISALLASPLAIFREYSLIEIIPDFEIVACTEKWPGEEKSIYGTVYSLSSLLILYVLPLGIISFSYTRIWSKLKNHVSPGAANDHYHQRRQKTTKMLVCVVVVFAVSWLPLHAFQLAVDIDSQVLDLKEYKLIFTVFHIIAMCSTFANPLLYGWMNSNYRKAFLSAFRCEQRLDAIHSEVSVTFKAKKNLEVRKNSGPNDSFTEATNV

Nonstructural protein 1 = Nonstructural protein 1 (Influenza A virus, UniProt Q194T2); format: functional, Influenza A virus (A/California/07/2009(H1N1))
Sequence of Nonstructural protein 1 (Q194T2 whole entry): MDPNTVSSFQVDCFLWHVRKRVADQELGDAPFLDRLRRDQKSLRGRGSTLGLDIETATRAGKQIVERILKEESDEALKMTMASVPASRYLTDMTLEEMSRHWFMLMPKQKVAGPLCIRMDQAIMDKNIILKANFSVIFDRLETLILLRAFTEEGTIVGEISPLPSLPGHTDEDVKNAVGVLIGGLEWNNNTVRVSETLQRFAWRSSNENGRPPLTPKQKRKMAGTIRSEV

Genome polyprotein = Genome polyprotein (dengue virus type 2, UniProt P29990); test: Dengue-2 NS5 methyltransferase inhibitors, primary screen, biochemical, confirmation dose response (AID 588689); format: functional
Sequence of Genome polyprotein (P29990 2492-3391 limits assumed): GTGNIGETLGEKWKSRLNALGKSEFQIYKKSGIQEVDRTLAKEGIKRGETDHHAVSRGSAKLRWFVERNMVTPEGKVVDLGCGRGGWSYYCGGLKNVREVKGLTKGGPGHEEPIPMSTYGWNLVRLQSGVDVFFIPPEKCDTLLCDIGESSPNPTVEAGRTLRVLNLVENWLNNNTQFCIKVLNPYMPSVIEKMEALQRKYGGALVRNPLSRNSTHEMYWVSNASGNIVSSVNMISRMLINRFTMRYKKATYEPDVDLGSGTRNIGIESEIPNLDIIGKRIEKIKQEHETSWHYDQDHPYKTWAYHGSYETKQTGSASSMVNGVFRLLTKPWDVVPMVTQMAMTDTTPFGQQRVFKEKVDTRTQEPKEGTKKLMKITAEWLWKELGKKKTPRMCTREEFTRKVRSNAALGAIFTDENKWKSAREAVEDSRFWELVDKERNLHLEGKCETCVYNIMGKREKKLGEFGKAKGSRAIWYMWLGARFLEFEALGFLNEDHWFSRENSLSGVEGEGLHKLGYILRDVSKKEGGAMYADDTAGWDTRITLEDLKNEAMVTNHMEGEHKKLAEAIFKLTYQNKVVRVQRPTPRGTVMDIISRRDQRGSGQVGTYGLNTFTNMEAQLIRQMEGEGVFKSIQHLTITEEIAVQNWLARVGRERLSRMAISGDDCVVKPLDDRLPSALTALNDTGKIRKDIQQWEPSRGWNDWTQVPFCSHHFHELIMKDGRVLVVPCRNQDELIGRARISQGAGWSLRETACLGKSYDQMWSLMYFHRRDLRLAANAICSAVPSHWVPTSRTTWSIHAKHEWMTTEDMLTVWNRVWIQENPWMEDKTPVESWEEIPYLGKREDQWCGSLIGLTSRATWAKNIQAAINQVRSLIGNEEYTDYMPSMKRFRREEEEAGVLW

[3] = molecular target: Serine/threonine-protein kinase TBK1 (Homo sapiens, UniProt Q9UHD2); test: Navigating the Kinome. Panel member name: TBK1; format: functional
[4] = molecular target: Mitogen-activated protein kinase kinase kinase kinase 2 (Homo sapiens, UniProt Q12851); format: functional;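 note: measured as one member of a kinome-wide kinase panel, with MAP4K2 as the panel entry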
[5] = molecular target: Rho-associated protein kinase 1 (Homo sapiens, UniProt Q13464); format: functional;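 note: measured within a broad kinome-wide panel profiling many kinases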
[6] = molecular target: Dual specificity protein kinase CLK4 (Homo sapiens, UniProt Q9HAZ1); format: functional
Sequence of Dual specificity protein kinase CLK4 (Q9HAZ1 whole entry, canonical isoform): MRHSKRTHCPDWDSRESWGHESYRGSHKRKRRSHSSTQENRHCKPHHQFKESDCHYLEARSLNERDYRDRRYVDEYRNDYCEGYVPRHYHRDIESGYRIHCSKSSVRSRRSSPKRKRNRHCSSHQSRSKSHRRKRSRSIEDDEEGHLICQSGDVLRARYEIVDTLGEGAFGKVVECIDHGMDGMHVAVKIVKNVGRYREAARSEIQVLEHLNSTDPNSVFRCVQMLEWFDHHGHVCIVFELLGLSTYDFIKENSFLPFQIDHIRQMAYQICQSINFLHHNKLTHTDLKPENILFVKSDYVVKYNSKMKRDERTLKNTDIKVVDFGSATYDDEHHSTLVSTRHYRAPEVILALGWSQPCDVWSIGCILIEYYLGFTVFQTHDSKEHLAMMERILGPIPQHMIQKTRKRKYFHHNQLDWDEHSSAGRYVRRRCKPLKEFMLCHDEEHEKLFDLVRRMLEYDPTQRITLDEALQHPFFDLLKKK

[7] = molecular target: Phosphorylase b kinase gamma catalytic chain, liver/testis isoform (Homo sapiens, UniProt P15735); format: functional;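 note: PHKG2 measured as one member of a kinome-wide kinase panel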
Sequence of Phosphorylase b kinase gamma catalytic chain, liver/testis isoform (P15735 whole entry, canonical isoform): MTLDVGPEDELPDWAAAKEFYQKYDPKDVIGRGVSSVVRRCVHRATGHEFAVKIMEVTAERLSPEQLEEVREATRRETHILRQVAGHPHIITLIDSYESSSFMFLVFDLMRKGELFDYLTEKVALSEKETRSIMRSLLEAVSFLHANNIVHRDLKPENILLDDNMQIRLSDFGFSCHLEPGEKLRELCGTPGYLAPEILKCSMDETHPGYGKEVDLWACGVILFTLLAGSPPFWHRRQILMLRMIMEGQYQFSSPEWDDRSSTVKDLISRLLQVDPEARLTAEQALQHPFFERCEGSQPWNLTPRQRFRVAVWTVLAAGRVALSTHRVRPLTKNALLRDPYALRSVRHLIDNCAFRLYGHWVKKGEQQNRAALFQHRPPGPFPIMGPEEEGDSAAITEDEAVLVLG

[8] = molecular target: Vascular endothelial growth factor receptor 2 (Homo sapiens, UniProt P35968); format: functional
Sequence of Vascular endothelial growth factor receptor 2 (P35968 whole entry): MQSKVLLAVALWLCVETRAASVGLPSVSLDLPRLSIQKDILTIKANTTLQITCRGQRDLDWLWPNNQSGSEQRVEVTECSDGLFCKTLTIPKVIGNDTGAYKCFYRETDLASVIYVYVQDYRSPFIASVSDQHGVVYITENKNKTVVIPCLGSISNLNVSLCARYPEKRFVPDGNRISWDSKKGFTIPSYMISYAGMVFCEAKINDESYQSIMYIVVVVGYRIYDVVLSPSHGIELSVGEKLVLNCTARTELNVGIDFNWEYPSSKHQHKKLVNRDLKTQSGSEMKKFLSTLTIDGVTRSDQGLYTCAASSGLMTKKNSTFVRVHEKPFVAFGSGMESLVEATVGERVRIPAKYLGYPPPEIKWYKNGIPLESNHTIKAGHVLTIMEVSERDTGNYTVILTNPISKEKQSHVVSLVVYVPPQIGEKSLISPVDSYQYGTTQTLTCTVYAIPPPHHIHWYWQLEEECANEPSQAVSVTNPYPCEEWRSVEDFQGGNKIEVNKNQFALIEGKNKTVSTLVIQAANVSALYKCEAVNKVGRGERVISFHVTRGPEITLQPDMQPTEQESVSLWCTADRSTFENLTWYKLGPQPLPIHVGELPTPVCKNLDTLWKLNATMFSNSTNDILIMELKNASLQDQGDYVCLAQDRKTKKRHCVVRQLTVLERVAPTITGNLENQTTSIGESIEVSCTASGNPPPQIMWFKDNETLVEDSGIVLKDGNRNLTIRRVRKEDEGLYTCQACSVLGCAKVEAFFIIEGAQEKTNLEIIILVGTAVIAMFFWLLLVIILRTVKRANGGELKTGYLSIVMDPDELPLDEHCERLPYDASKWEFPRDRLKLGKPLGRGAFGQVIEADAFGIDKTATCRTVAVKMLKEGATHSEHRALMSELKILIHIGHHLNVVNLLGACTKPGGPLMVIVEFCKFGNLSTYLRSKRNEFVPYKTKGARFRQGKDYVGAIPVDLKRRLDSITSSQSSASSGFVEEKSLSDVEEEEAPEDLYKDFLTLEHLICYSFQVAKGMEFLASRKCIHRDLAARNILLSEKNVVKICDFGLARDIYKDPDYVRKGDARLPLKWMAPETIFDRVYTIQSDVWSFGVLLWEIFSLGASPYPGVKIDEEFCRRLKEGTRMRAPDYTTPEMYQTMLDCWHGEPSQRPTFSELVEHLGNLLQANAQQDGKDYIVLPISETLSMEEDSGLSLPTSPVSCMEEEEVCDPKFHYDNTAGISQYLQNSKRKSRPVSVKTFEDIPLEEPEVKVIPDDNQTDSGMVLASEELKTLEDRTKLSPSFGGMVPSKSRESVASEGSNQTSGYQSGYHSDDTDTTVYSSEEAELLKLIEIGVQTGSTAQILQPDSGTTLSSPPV

[9] = molecular target: Cyclin-dependent kinase 1 (Homo sapiens, UniProt P06493); format: functional;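 note: Kinome-wide panel profiling, with the target listed as panel member CDC2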
[10] = molecular target: Tyrosine-protein kinase Lck (Homo sapiens, UniProt P06239); format: functional;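 note: lck was assayed as one member of a kinase panel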
[11] = molecular target: Protein kinase C delta type (Homo sapiens, UniProt Q05655); format: functional
[12] = molecular target: Lymphokine-activated killer T-cell-originated protein kinase (Homo sapiens, UniProt Q96KB5); format: functional;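 note: value comes from a kinase panel screen in which TOPK was one of the panel members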
[13] = molecular target: Receptor-type tyrosine-protein kinase FLT3 (Homo sapiens, UniProt P36888); format: functional;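 note: FLT3 was tested as one member of a kinome-wide kinase panel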
[14] = molecular target: Calcium/calmodulin-dependent protein kinase type II subunit alpha (Homo sapiens, UniProt Q9UQM7); test: Navigating the Kinome. Panel member name: CAMK2A; format: functional
Sequence of Calcium/calmodulin-dependent protein kinase type II subunit alpha (Q9UQM7 whole entry): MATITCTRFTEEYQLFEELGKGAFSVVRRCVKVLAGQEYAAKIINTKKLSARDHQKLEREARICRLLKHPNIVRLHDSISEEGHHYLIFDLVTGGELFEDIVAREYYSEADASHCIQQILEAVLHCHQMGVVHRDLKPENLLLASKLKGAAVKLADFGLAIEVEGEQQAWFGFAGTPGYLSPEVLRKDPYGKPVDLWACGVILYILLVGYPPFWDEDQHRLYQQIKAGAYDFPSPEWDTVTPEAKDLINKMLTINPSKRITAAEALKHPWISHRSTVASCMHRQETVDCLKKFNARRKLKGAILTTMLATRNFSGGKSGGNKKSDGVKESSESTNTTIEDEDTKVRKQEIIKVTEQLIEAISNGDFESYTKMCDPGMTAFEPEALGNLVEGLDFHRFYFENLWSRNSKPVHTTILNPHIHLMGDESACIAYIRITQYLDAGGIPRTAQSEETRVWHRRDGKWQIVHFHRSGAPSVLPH

[15] = molecular target: Serine/threonine-protein kinase pim-3 (Homo sapiens, UniProt Q86V86); format: functional;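 note: value obtained as one member of a broad kinase panel profiling effort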
[16] = molecular target: Mitogen-activated protein kinase 12 (Homo sapiens, UniProt P53778); format: functional;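 note: measured as one member of a kinome-wide kinase profiling panel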
[17] = molecular target: Serine/threonine-protein kinase 3 (Homo sapiens, UniProt Q13188); format: functional;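 note: measured as one member of a kinome-wide kinase panel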
[18] = molecular target: Serine/threonine-protein kinase pim-2 (Homo sapiens, UniProt Q9P1W9); format: functional;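 note: value comes from a broad kinase panel profiling study in which PIM2 was one of the panel members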
[19] = molecular target: Protein kinase C gamma type (Homo sapiens, UniProt P05129); format: functional
[20] = molecular target: Dual specificity tyrosine-phosphorylation-regulated kinase 1B (Homo sapiens, UniProt Q9Y463); test: Navigating the Kinome. Panel member name: DYRK1B; format: functional
[21] = molecular target: Casein kinase I isoform alpha (Homo sapiens, UniProt P48729); format: functional
[22] = molecular target: Rho-associated protein kinase 2 (Homo sapiens, UniProt O75116); format: functional
[23] = molecular target: Serine/threonine-protein kinase Nek2 (Homo sapiens, UniProt P51955); format: functional
[24] = molecular target: cGMP-dependent protein kinase 1 (Homo sapiens, UniProt Q13976); format: functional;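 note: value from a kinome panel screen with PRKG1 as the panel member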
[25] = molecular target: Interleukin-1 receptor-associated kinase 1 (Homo sapiens, UniProt P51617); format: functional;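 note: IRAK1 tested as one member of a kinome panel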
[26] = molecular target: Mitogen-activated protein kinase kinase kinase 20 (Homo sapiens, UniProt Q9NYL2); format: functional
[27] = molecular target: Cell division cycle 7-related protein kinase (Homo sapiens, UniProt O00311); format: functional;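 note: value obtained from a kinome-wide kinase panel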
[28] = molecular target: MAP kinase-activated protein kinase 3 (Homo sapiens, UniProt Q16644); format: functional;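 note: value comes from a kinome-wide profiling panel in which MAPKAPK3 is one of the panel members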
[29] = molecular target: Mitogen-activated protein kinase 1 (Homo sapiens, UniProt P28482); format: functional
[30] = molecular target: MAP/microtubule affinity-regulating kinase 3 (Homo sapiens, UniProt P27448); format: functional;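 note: MARK3 affinity measured as one member of a kinome panel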
Sequence of MAP/microtubule affinity-regulating kinase 3 (P27448 whole entry): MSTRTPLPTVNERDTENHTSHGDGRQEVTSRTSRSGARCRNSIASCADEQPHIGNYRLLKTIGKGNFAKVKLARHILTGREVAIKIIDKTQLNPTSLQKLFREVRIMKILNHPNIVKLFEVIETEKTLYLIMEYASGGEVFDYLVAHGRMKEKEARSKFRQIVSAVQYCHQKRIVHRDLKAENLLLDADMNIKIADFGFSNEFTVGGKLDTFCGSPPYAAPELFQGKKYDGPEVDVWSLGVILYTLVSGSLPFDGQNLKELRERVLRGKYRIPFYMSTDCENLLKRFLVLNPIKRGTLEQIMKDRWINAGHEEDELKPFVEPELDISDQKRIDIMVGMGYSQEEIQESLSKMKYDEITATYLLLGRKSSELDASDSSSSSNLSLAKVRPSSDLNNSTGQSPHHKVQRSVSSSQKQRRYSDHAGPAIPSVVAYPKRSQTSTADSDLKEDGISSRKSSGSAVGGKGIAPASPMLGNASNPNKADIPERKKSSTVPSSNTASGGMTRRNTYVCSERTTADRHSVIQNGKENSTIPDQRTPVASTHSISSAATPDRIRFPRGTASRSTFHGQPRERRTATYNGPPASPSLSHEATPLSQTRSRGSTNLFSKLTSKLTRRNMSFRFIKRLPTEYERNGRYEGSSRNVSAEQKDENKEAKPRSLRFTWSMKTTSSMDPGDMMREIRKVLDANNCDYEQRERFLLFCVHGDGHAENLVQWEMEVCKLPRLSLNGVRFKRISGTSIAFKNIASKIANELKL

[31] = molecular target: Dual specificity tyrosine-phosphorylation-regulated kinase 1A (Homo sapiens, UniProt Q13627); format: functional;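 note: measured against DYRK1A as one member of a broad kinome profiling panel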
[32] = molecular target: Mitogen-activated protein kinase 8 (Homo sapiens, UniProt P45983); format: functional;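 note: value comes from one member of a kinome-wide kinase profiling panel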
[33] = molecular target: Mitogen-activated protein kinase 9 (Homo sapiens, UniProt P45984); format: functional;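 note: value from a kinome panel profiling assay, MAPK9 panel entry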
[34] = molecular target: Proto-oncogene tyrosine-protein kinase ROS (Homo sapiens, UniProt P08922); format: functional;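 note: ROS1 tested as one member of a kinome-wide kinase panel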

CCOC(=O)c1c(NS(=O)(=O)c2ccccc2)n(CCCOC)c2nc3ccccc3nc12
EC50 (cells): > 350000 nM (not active)

O=C(COC(=O)c1ccc([N+](=O)[O-])s1)NCCc1ccccc1
IC50 [1]: 2820 nM (active)

COCC/N=c1\scc(-c2cccs2)n1/N=C/c1ccc(O)c(O)c1O
IC50 (HEK293): > 11800 nM (not active) | EC50 [2]: 19300 nM (not active) | IC50 (Nonstructural protein 1): 42900 nM (active) | IC50 (Genome polyprotein): > 100000 nM (active)

OC1CCC(Nc2cc(Cl)nc(-c3c[nH]c4ncccc34)n2)CC1 (stereo not drawn)
Ki [3]: > 3160 nM (inactive) | Ki [4]: 7.94 nM (active) | Ki [5]: 31.6 nM (active) | Ki [6]: 20 nM (active) | Ki [7]: > 5010 nM (inactive) | Ki [8]: 1260 nM (active) | Ki [9]: 1000 nM (active) | Ki [10]: > 3160 nM (inactive) | Ki [11]: 126 nM (active) | Ki [12]: 3980 nM (active) | Ki [13]: 1000 nM (active) | Ki [14]: > 3160 nM (inactive) | Ki [15]: 1260 nM (active) | Ki [16]: 1580 nM (active) | Ki [17]: 50.1 nM (active) | Ki [18]: 251 nM (active) | Ki [19]: 251 nM (active) | Ki [20]: 316 nM (active) | Ki [21]: > 2510 nM (inactive) | Ki [22]: 12.6 nM (active) | Ki [23]: 3980 nM (active) | Ki [24]: > 1260 nM (inactive) | Ki [25]: 1260 nM (active) | Ki [26]: > 7940 nM (inactive) | Ki [27]: 1 nM (active) | Ki [28]: > 10000 nM (inactive) | Ki [29]: > 5010 nM (inactive) | Ki [30]: 398 nM (active) | Ki [31]: 50.1 nM (active) | Ki [32]: 2510 nM (active) | Ki [33]: 3160 nM (active) | Ki [34]: 794 nM (active)

— ChEMBL document CHEMBL1201862, “PubChem BioAssay data set” (2004)
